Laboratory results taken from publication PMC10092094 (Chemmedchem, 2022).
Entries after “also recorded” stand apart in the source; their conditions may differ.

Assays:
OGG1 [1] = molecular target: T1, OGG1 (Homo sapiens, UniProt O15527); experiment: biochemical
OGG1 [2] = molecular target: T1, OGG1; experiment: Differential scanning fluorimetry; format: binding
[3] = confidence interval 95 in parentheses
[4] = IC50, biochemical inhibition, single replicate
[5] = IC50 (CI95), biochemical inhibition, confidence interval 95 in parentheses

T1 sequence (O15527 whole entry): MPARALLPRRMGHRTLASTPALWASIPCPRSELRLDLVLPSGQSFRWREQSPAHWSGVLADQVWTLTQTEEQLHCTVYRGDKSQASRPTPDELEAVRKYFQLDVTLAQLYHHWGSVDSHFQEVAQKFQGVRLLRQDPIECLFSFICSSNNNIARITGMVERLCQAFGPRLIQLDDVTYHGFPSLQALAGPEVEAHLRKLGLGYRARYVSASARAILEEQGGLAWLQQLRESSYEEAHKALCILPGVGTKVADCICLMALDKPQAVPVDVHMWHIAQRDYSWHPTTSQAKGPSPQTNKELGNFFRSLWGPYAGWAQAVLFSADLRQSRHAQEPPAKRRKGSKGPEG

Row | SMILES | DSF stabilization (ΔT) (OGG1 [2]) [K] | Activity against OGG1 (in words) (OGG1 [1]) | also measured
1 | O=C(Nc1ccc([N+](=O)[O-])cc1)N1CCC(n2c(=O)[nH]c3c(Br)cccc32)CC1 [Compound 48, 4‐(4‐bromo‐2‐oxo‐2,3‐dihydro‐1H‐1,3‐benzodiazol‐1‐yl)‐N‐(4‐nitrophenyl)piperidine‐1‐carboxamide] |  |  | IC50 (CI95), biochemical inhibition (OGG1 [1]; [3]): no effect
2 | CC(=O)Nc1ccc(NC(=O)N2CCC(n3c(=O)[nH]c4c(Br)cccc43)CC2)cc1 [Compound 51, 4‐(4‐bromo‐2‐oxo‐2,3‐dihydro‐1H‐1,3‐benzodiazol‐1‐yl)‐N‐(4‐acetamidophenyl)piperidine‐1‐carboxamide] |  |  | IC50 (CI95), biochemical inhibition (OGG1 [1]; [3]): no effect
3 | COc1ncc(NC(=O)N2CCC(n3c(=O)[nH]c4c(Br)cccc43)CC2)cc1C [Compound 35, 4‐(4‐bromo‐2‐oxo‐2,3‐dihydro‐1H‐1,3‐benzodiazol‐1‐yl)‐N‐(6‐methoxy‐5‐methylpyridin‐3‐yl)piperidine‐1‐carboxamide] |  | only weakly active | 
4 | COc1cc(NC(=O)N2CCC(n3c(=O)[nH]c4c(Br)cccc43)CC2)ccc1Cl [Compound 54, 4‐(4‐bromo‐2‐oxo‐2,3‐dihydro‐1H‐1,3‐benzodiazol‐1‐yl)‐N‐(4‐chloro‐3‐methoxyphenyl)piperidine‐1‐carboxamide] | 1.9 |  | IC50 (OGG1 [1]; [5]): 0.3 µM
5 | CN(C)c1ccc(NC(=O)N2CCC(n3c(=O)[nH]c4c(Br)cccc43)CC2)cc1 [Compound 52, 4‐(4‐bromo‐2‐oxo‐2,3‐dihydro‐1H‐1,3‐benzodiazol‐1‐yl)‐N‐[4‐(dimethylamino)phenyl]piperidine‐1‐carboxamide] |  |  | IC50 (OGG1 [1]; [5]): 32.2 µM
6 | O=C(c1ccc(I)cc1)N1CCC(n2c(=O)[nH]c3c(Br)cccc32)CC1 [Compound 33, 4‐bromo‐1‐[1‐(4‐iodobenzoyl)piperidin‐4‐yl]‐2,3‐dihydro‐1H‐1,3‐benzodiazol‐2‐one] |  | no or a very low activity | 
7 | O=C(Nc1ccc(F)cc1)N1CCC(n2c(=O)[nH]c3cc(Cl)ccc32)CC1 [Compound 15, 4‐(5‐chloro‐2‐oxo‐2,3‐dihydro‐1H‐1,3‐benzodiazol‐1‐yl)‐N‐(4‐fluorophenyl)piperidine‐1‐carboxamide] |  |  | IC50 (CI95), biochemical inhibition (OGG1 [1]; [3]): no effect
8 | COc1cc(NC(=O)N2CCC(n3c(=O)[nH]c4c(OC)cccc43)CC2)ccc1C [TH9525, 4‐(4‐methoxy‐2‐oxo‐2,3‐dihydro‐1H‐1,3‐benzodiazol‐1‐yl)‐N‐(3‐methoxy‐4‐methylphenyl)piperidine‐1‐carboxamide] |  |  | IC50 (OGG1 [1]; [5]): 2 µM
9 | O=C(Oc1ccc(Cl)cc1)N1CCC(n2c(=O)[nH]c3c(Br)cccc32)CC1 [Compound 31, 4‐chlorophenyl 4‐(4‐bromo‐2‐oxo‐2,3‐dihydro‐1H‐1,3‐benzodiazol‐1‐yl)piperidine‐1‐carboxylate] |  | no or a very low activity | 
10 | O=C(Nc1ccc(I)cc1)N1CCC(n2cnc3c(Br)cccc32)CC1 [Compound 41, 4‐(4‐bromo‐1H‐1,3‐benzodiazol‐1‐yl)‐N‐(4‐iodophenyl)piperidine‐1‐carboxamide] |  | neither of which had a pronounced effect on inhibiting or stabilizing OGG1 | 
11 | O=C(NC1CCCCC1)N1CCC(n2c(=O)[nH]c3c(Br)cccc32)CC1 [Compound 32, 4‐(4‐bromo‐2‐oxo‐2,3‐dihydro‐1H‐1,3‐benzodiazol‐1‐yl)‐N‐cyclohexylpiperidine‐1‐carboxamide] |  | only weakly active | 
12 | O=C(Cc1ccc(I)cc1)N1CCC(n2c(=O)[nH]c3c(Br)cccc32)CC1 [Compound 30, 4‐bromo‐1‐{1‐[2‐(4‐iodophenyl)acetyl]piperidin‐4‐yl}‐2,3‐dihydro‐1H‐1,3‐benzodiazol‐2‐one] |  | no or a very low activity | 
13 | Cc1ccc2[nH]c(=O)n(C3CCN(C(=O)Nc4ccc(I)cc4)CC3)c2c1 [Compound 22, 4‐(6‐methyl‐2‐oxo‐2,3‐dihydro‐1H‐1,3‐benzodiazol‐1‐yl)‐N‐(4‐iodophenyl)piperidine‐1‐carboxamide] |  |  | IC50 (CI95), biochemical inhibition (OGG1 [1]; [3]): inactivity; also recorded: no effect
14 | CCOC(=O)c1ccc(NC(=O)N2CCC(n3c(=O)[nH]c4c(Br)cccc43)CC2)cc1 [Compound 50, Ethyl‐4‐{[4‐(4‐bromo‐2‐oxo‐2,3‐dihydro‐1H‐1,3‐benzodiazol‐1‐yl)‐piperidine‐1‐carbonyl]‐amino}‐benzoate] |  |  | IC50 (CI95), biochemical inhibition (OGG1 [1]; [3]): no effect
15 | O=c1[nH]c2c(Br)cccc2n1C1CCN(S(=O)(=O)c2ccc(I)cc2)CC1 [Compound 34, 4‐bromo‐1‐[1‐(4‐iodobenzenesulfonyl)piperidin‐4‐yl]‐2,3‐dihydro‐1H‐1,3‐benzodiazol‐2‐one] |  | no or a very low activity | 
16 | CN(C(=O)N1CCC(n2c(=O)[nH]c3c(Br)cccc32)CC1)c1ccc(Cl)c(Cl)c1 [Compound 29, 4‐(4‐bromo‐2‐oxo‐2,3‐dihydro‐1H‐1,3‐benzodiazol‐1‐yl)‐N‐(3,4‐dichlorophenyl)‐N‐methylpiperidine‐1‐carboxamide] |  | no or a very low activity | 
17 | O=C(Nc1ccc(I)cc1)N1CCC(n2c(=O)oc3c(Br)cccc32)CC1 [Compound 42, 4‐(7‐bromo‐2‐oxo‐2,3‐dihydro‐1,3‐benzoxazol‐3‐yl)‐N‐(4‐iodophenyl)piperidine‐1‐carboxamide] |  | neither of which had a pronounced effect on inhibiting or stabilizing OGG1 | 

Second part, led by results:

Row | DSF stabilization (ΔT) (OGG1 [2]) [K] | Activity against OGG1 (in words) (OGG1 [1]) | SMILES | also measured
18 | 4.1 |  | O=C(Nc1ccc(Br)cc1)N1CCC(n2c(=O)[nH]c3cc(Cl)ccc32)CC1 [Compound 17, 4‐(5‐chloro‐2‐oxo‐2,3‐dihydro‐1H‐1,3‐benzodiazol‐1‐yl)‐N‐(4‐bromophenyl)piperidine‐1‐carboxamide] | IC50 (OGG1 [1]; [4]): 1.6 µM
19 | 2.2 |  | Cc1cccc2[nH]c(=O)n(C3CCN(C(=O)Nc4ccc(I)cc4)CC3)c12 [Compound 23, 4‐(7‐methyl‐2‐oxo‐2,3‐dihydro‐1H‐1,3‐benzodiazol‐1‐yl)‐N‐(4‐iodophenyl)piperidine‐1‐carboxamide] | IC50 (OGG1 [1]; [4]): 8.7 µM
20 | 1.6 |  | O=C(Nc1ccc(C(F)(F)F)cc1)N1CCC(n2c(=O)[nH]c3c(Br)cccc32)CC1 [Compound 49, 4‐(4‐bromo‐2‐oxo‐2,3‐dihydro‐1H‐1,3‐benzodiazol‐1‐yl)‐N‐[4‐(trifluoromethyl)phenyl]piperidine‐1‐carboxamide] | IC50 (OGG1 [1]; [5]): 1.6 µM
21 | 1.6 |  | O=C(Nc1ccc(I)cc1)N1CCC(n2c(=O)[nH]c3cc(Cl)ccc32)CC1 [Compound 18, 4‐(5‐chloro‐2‐oxo‐2,3‐dihydro‐1H‐1,3‐benzodiazol‐1‐yl)‐N‐(4‐iodophenyl)piperidine‐1‐carboxamide] | 
22 | 3.1 |  | Cc1ccc(NC(=O)N2CCC(n3c(=O)[nH]c4ccccc43)CC2)cc1 [Compound 4, N‐(4‐methylphenyl)‐4‐(2‐oxo‐2,3‐dihydro‐1H‐1,3‐benzodiazol‐1‐yl)piperidine‐1‐carboxamide] | IC50 (OGG1 [1]; [5]): 19.9 µM
23 | 3.3 |  | O=C(Nc1ccccc1)N1CCC(n2c(=O)[nH]c3cc(Cl)ccc32)CC1 [Compound 11, 4‐(5‐chloro‐2‐oxo‐2,3‐dihydro‐1H‐1,3‐benzodiazol‐1‐yl)‐N‐phenylpiperidine‐1‐carboxamide] | 
24 | 3.1 |  | O=C(Nc1ccc(Cl)c(Cl)c1)N1CCC(n2c(=O)[nH]c3cc(Cl)ccc32)CC1 [Compound 19, 4‐(5‐chloro‐2‐oxo‐2,3‐dihydro‐1H‐1,3‐benzodiazol‐1‐yl)‐N‐(3,4‐dichlorophenyl)piperidine‐1‐carboxamide] | 
